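GI50 is the concentration that inhibits growth by half. TGI denotes the concentration required for complete inhibition of growth.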
What was measured:
Assay in all cases: NCI tumour cell line growth inhibition, 384-well format
786-0 renal = test system: 786-0 renal
A498 renal = test system: A498 renal
A549 NSCLC = test system: A549 NSCLC
ACHN renal = test system: ACHN renal
BT-549 breast = test system: BT-549 breast
CAKI-1 renal = test system: CAKI-1 renal
CCRF-CEM leukemia = test system: CCRF-CEM leukemia
COLO 205 colon = test system: COLO 205 colon
DU-145 prostate = test system: DU-145 prostate
EKVX NSCLC = test system: EKVX NSCLC
HCC-2998 colon = test system: HCC-2998 colon
HCT-116 colon = test system: HCT-116 colon
HCT-15 colon = test system: HCT-15 colon
HL-60(TB) leukemia = test system: HL-60(TB) leukemia
HOP-62 NSCLC = test system: HOP-62 NSCLC
HOP-92 NSCLC = test system: HOP-92 NSCLC
HT29 colon = test system: HT29 colon
IGROV1 ovarian = test system: IGROV1 ovarian
K-562 leukemia = test system: K-562 leukemia
KM12 colon = test system: KM12 colon
LOX IMVI melanoma = test system: LOX IMVI melanoma
M14 melanoma = test system: M14 melanoma
MALME-3M melanoma = test system: MALME-3M melanoma
MCF7 breast = test system: MCF7 breast
MDA-MB-231 breast = test system: MDA-MB-231 breast
MDA-MB-435 melanoma = test system: MDA-MB-435 melanoma
MDA-MB-468 breast = test system: MDA-MB-468 breast
MOLT-4 leukemia = test system: MOLT-4 leukemia
NCI-H226 lung = test system: NCI-H226 lung
NCI-H23 lung = test system: NCI-H23 lung
NCI-H322M lung = test system: NCI-H322M lung
NCI-H460 NSCLC = test system: NCI-H460 NSCLC
NCI-H522 lung = test system: NCI-H522 lung
NCI/ADR-RES ovarian = test system: NCI/ADR-RES ovarian
OVCAR-3 ovarian = test system: OVCAR-3 ovarian
OVCAR-4 ovarian = test system: OVCAR-4 ovarian
OVCAR-5 ovarian = test system: OVCAR-5 ovarian
OVCAR-8 ovarian = test system: OVCAR-8 ovarian
PC-3 prostate = test system: PC-3 prostate
RPMI-8226 leukemia = test system: RPMI-8226 leukemia
RXF 393 renal = test system: RXF 393 renal
SF-268 CNS = test system: SF-268 CNS
SF-295 CNS = test system: SF-295 CNS
SF-539 CNS = test system: SF-539 CNS
SK-MEL-2 melanoma = test system: SK-MEL-2 melanoma
SK-MEL-28 melanoma = test system: SK-MEL-28 melanoma
SK-MEL-5 melanoma = test system: SK-MEL-5 melanoma
SK-OV-3 ovarian = test system: SK-OV-3 ovarian
SN12C renal = test system: SN12C renal
SNB-19 CNS = test system: SNB-19 CNS
SNB-75 CNS = test system: SNB-75 CNS
SR leukemia = test system: SR leukemia
SW-620 colon = test system: SW-620 colon
T-47D breast = test system: T-47D breast
TK-10 renal = test system: TK-10 renal
U251 glioblastoma = test system: U251 glioblastoma
UACC-257 melanoma = test system: UACC-257 melanoma
UACC-62 melanoma = test system: UACC-62 melanoma
UO-31 renal = test system: UO-31 renal

CC#C/C(=N\OC[C@H]1COCCN1)c1ccc2ncnc(Nc3ccc(OCc4cccc(F)c4)c(Cl)c3)c2c1
GI50 ([…]-0 renal): 1.31 µM
TGI (786-0 renal): 2.6 µM
GI50 (A498 renal): 1.13 µM
TGI (A498 renal): 2.34 µM
GI50 (A549 NSCLC): 1.17 µM
TGI (A549 NSCLC): 2.42 µM
GI50 (ACHN renal): 0.523 µM
TGI (ACHN renal): 1.99 µM
GI50 (BT-549 breast): 1.51 µM
TGI (BT-549 breast): 2.85 µM
GI50 (CAKI-1 renal): 1.12 µM
TGI (CAKI-1 renal): 2.34 µM
GI50 (CCRF-CEM leukemia): 1.5 µM
TGI (CCRF-CEM leukemia): 2.84 µM
GI50 (COLO 205 colon): 1.96 µM
TGI (COLO 205 colon): 3.38 µM
GI50 (DU-145 prostate): 1.16 µM
TGI (DU-145 prostate): 2.42 µM
GI50 (EKVX NSCLC): 1.27 µM
TGI (EKVX NSCLC): 2.54 µM
GI50 (HCC-2998 colon): 1.54 µM
TGI (HCC-2998 colon): 2.89 µM
GI50 (HCT-116 colon): 1.66 µM
TGI (HCT-116 colon): 3.05 µM
GI50 (HCT-15 colon): 1.67 µM
TGI (HCT-15 colon): 3.05 µM
GI50 (HL-60(TB) leukemia): 2.23 µM
TGI (HL-60(TB) leukemia): 3.69 µM
GI50 (HOP-62 NSCLC): 1.62 µM
TGI (HOP-62 NSCLC): 2.98 µM
GI50 (HOP-92 NSCLC): 0.981 µM
TGI (HOP-92 NSCLC): 2.18 µM
GI50 (HT29 colon): 1.65 µM
TGI (HT29 colon): 3.04 µM
GI50 (IGROV1 ovarian): 0.261 µM
TGI (IGROV1 ovarian): 1.87 µM
GI50 (K-562 leukemia): 1.7 µM
TGI (K-562 leukemia): 3.09 µM
GI50 (KM12 colon): 1.76 µM
TGI (KM12 colon): 3.16 µM
GI50 (LOX IMVI melanoma): 1.91 µM
TGI (LOX IMVI melanoma): 3.33 µM
GI50 (M14 melanoma): 1.95 µM
TGI (M14 melanoma): 3.37 µM
GI50 (MALME-3M melanoma): 1.76 µM
TGI (MALME-3M melanoma): 3.15 µM
GI50 (MCF7 breast): 1.5 µM
TGI (MCF7 breast): 2.85 µM
GI50 (MDA-MB-231 breast): 1.73 µM
TGI (MDA-MB-231 breast): 3.11 µM
GI50 (MDA-MB-435 melanoma): 1.89 µM
TGI (MDA-MB-435 melanoma): 3.31 µM
GI50 (MDA-MB-468 breast): 0.0557 µM
TGI (MDA-MB-468 breast): 0.368 µM
GI50 (MOLT-4 leukemia): 1.44 µM
TGI (MOLT-4 leukemia): 2.76 µM
GI50 (NCI-H226 lung): 1.8 µM
TGI (NCI-H226 lung): 3.38 µM
GI50 (NCI-H23 lung): 2.02 µM
TGI (NCI-H23 lung): 3.98 µM
GI50 (NCI-H322M lung): 0.102 µM
TGI (NCI-H322M lung): 1.23 µM
GI50 (NCI-H460 NSCLC): 1.75 µM
TGI (NCI-H460 NSCLC): 3.18 µM
GI50 (NCI-H522 lung): 0.0482 µM
TGI (NCI-H522 lung): 1.29 µM
GI50 (NCI/ADR-RES ovarian): 1.49 µM
TGI (NCI/ADR-RES ovarian): 4.02 µM
GI50 (OVCAR-3 ovarian): 1.19 µM
TGI (OVCAR-3 ovarian): 2.44 µM
GI50 (OVCAR-4 ovarian): 1.28 µM
TGI (OVCAR-4 ovarian): 2.55 µM
GI50 (OVCAR-5 ovarian): 1.8 µM
TGI (OVCAR-5 ovarian): 3.59 µM
GI50 (OVCAR-8 ovarian): 1.37 µM
TGI (OVCAR-8 ovarian): 2.67 µM
GI50 (PC-3 prostate): 1.78 µM
TGI (PC-3 prostate): 3.2 µM
GI50 (RPMI-8226 leukemia): 0.959 µM
TGI (RPMI-8226 leukemia): 2.42 µM
GI50 (RXF 393 renal): 0.864 µM
TGI (RXF 393 renal): 2.26 µM
GI50 (SF-268 CNS): 1.62 µM
TGI (SF-268 CNS): 3 µM
GI50 (SF-295 CNS): 1.82 µM
TGI (SF-295 CNS): 3.22 µM
GI50 (SF-539 CNS): 1.59 µM
TGI (SF-539 CNS): 2.95 µM
GI50 (SK-MEL-2 melanoma): 1.31 µM
TGI (SK-MEL-2 melanoma): 2.58 µM
GI50 (SK-MEL-28 melanoma): 1.77 µM
TGI (SK-MEL-28 melanoma): 3.16 µM
GI50 (SK-MEL-5 melanoma): 1.51 µM
TGI (SK-MEL-5 melanoma): 2.85 µM
GI50 (SK-OV-3 ovarian): 0.246 µM
TGI (SK-OV-3 ovarian): 3.42 µM
GI50 (SN12C renal): 1.28 µM
TGI (SN12C renal): 2.55 µM
GI50 (SNB-19 CNS): 1.67 µM
TGI (SNB-19 CNS): 3.04 µM
GI50 (SNB-75 CNS): 1.87 µM
TGI (SNB-75 CNS): 3.27 µM
GI50 (SR leukemia): 0.393 µM
TGI (SR leukemia): 1.23 µM
GI50 (SW-620 colon): 1.88 µM
TGI (SW-620 colon): 3.3 µM
GI50 (T-47D breast): 1.02 µM
TGI (T-47D breast): 2.41 µM
GI50 (TK-10 renal): 0.404 µM
TGI (TK-10 renal): 1.88 µM
GI50 (U251 glioblastoma): 1.88 µM
TGI (U251 glioblastoma): 3.31 µM
GI50 (UACC-257 melanoma): 1.52 µM
TGI (UACC-257 melanoma): 2.85 µM
GI50 (UACC-62 melanoma): 1.65 µM
TGI (UACC-62 melanoma): 3.02 µM
GI50 (UO-31 renal): 1.52 µM
TGI (UO-31 renal): 2.86 µM

— PubChem BioAssay (NCI)
